In ChEMBL document CHEMBL5244269, “Improving metabolic stability and removing aldehyde oxidase liability in a 5-azaquinazoline series of IRAK4 inhibitors” (Bioorg Med Chem, 2020):

How the values were obtained:
[1] = Metabolic stability in human hepatocytes assessed as half life; format: ADME, cell-based, Hepatocyte
[2] = Terminal half life in CD1 mouse at 0.5 mg/kg, iv; format: ADME, organism-based; conditions: in vivo, read-out: beta t1/2 (converted)
[3] = Metabolic stability in minipig hepatocytes assessed as intrinsic clearance measured per 10^6 cells; format: ADME, cell-based, Sus scrofa domesticus, Hepatocyte; conditions: pig, read-out: CLH
[4] = Plasma protein binding in monkey assessed as free fraction by equilibrium dialysis analysis; format: ADME, cell-free, Macaca mulatta; conditions: rhesus monkey
[5] = Metabolic stability in rat liver microsomes assessed as intrinsic clearance; format: ADME, Microsome; conditions: read-out: CLH
[6] = Metabolic stability in dog liver microsomes assessed as intrinsic clearance; format: ADME, Canis lupus familiaris, Microsome; conditions: read-out: CLH
[7] = Volume of distribution at steady state in Han Wistar rat at 2 mg/kg, po or 1 mg/kg, iv; format: ADME, organism-based; conditions: in vivo
[8] = Metabolic stability in monkey hepatocytes assessed as intrinsic clearance measured per 10^6 cells; format: ADME, cell-based, Macaca mulatta, Hepatocyte; conditions: rhesus monkey, read-out: CLH
[9] = Terminal half life in cynomolgus monkey at 1 mg/kg, iv; format: ADME, organism-based, Macaca fascicularis; conditions: in vivo, read-out: beta t1/2 (converted)
[10] = Oral bioavailability in CD1 mouse at 1 mg/kg; format: ADME, organism-based; conditions: in vivo
[11] = Plasma protein binding in human assessed as free fraction by equilibrium dialysis analysis; format: ADME, cell-free
[12] = Metabolic stability in mouse hepatocytes assessed as intrinsic clearance measured per 10^6 cells; format: ADME, cell-based, Hepatocyte; conditions: read-out: CLH
[13] = Metabolic stability in monkey liver microsomes assessed as intrinsic clearance; format: ADME, Macaca mulatta, Microsome; conditions: rhesus monkey, read-out: CLH
[14] = Clearance in cynomolgus monkey at 1 mg/kg, iv; format: ADME, organism-based, Macaca fascicularis; conditions: in vivo
[15] = Volume of distribution at steady state in CD1 mouse at 1 mg/kg, po or 0.5 mg/kg, iv; format: ADME, organism-based; conditions: in vivo
[16] = Plasma protein binding in rat assessed as free fraction by equilibrium dialysis analysis; format: ADME, cell-free
[17] = Metabolic stability in human liver microsomes assessed as half life; format: ADME, Microsome
[18] = Metabolic stability in rat hepatocytes assessed as intrinsic clearance measured per 10^6 cells; format: ADME, cell-based, Hepatocyte; conditions: read-out: CLH
[19] = Metabolic stability in human cytosol assessed as intrinsic clearance; format: ADME, subcellular
[20] = Volume of distribution at steady state in cynomolgus monkey at 1 mg/kg, iv; format: ADME, organism-based, Macaca fascicularis; conditions: in vivo, read-out: Vdss
[21] = Metabolic stability in dog hepatocytes assessed as intrinsic clearance measured per 10^6 cells; format: ADME, cell-based, Canis lupus familiaris, Hepatocyte; conditions: read-out: CLH
[22] = Oral bioavailability in Han Wistar rat at 2 mg/kg; format: ADME, organism-based; conditions: in vivo
[23] = Plasma protein binding in mouse assessed as free fraction by equilibrium dialysis analysis; format: ADME, cell-free
[24] = molecular target: T1, Phosphatidylinositol 4,5-bisphosphate 3-kinase catalytic subunit delta isoform (Homo sapiens) (UniProt O00329); assay: Inhibition of PI3Kdelta (unknown origin) at 0.1 uM relative to control
T1 sequence (whole entry): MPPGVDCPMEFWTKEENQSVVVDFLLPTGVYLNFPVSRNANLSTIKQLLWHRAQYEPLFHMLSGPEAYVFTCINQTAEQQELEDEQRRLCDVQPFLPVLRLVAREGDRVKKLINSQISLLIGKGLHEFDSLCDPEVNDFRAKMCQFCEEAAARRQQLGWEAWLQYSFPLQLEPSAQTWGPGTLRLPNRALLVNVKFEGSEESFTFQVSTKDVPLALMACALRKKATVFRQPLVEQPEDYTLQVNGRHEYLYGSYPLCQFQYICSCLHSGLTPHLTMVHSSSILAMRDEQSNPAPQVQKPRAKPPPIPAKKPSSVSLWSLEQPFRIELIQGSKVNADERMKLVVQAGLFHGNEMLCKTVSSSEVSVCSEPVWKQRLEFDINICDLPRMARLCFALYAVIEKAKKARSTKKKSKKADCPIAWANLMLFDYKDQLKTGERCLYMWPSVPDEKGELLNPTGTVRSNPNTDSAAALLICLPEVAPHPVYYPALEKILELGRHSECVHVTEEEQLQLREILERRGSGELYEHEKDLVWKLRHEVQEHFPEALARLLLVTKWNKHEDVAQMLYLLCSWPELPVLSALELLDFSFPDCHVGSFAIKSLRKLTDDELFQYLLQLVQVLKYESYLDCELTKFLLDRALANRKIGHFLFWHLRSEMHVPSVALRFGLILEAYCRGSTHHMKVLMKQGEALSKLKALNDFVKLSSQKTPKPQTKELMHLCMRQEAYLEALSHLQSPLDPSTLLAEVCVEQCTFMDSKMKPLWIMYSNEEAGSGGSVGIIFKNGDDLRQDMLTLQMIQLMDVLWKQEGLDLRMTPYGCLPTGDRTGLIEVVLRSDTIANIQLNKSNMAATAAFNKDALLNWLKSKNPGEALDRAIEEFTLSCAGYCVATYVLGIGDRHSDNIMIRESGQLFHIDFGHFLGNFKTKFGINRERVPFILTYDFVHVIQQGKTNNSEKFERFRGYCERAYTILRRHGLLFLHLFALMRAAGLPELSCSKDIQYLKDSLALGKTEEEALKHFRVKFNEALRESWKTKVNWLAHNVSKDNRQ

[25] = Terminal half life in Han Wistar rat at 1 mg/kg, iv; format: ADME, organism-based; conditions: in vivo, read-out: beta t1/2 (converted)
[26] = Metabolic stability in mouse liver microsomes assessed as intrinsic clearance; format: ADME, Microsome; conditions: read-out: CLH
[27] = Metabolic stability in minipig liver microsomes assessed as intrinsic clearance; format: ADME, Sus scrofa domesticus, Microsome; conditions: pig, read-out: CLH
OCI-Ly10 [28] = assay: Growth inhibition of human OCILY10 cells at 0.33 uM incubated for 3 days (reference value: -2%); format: functional; conditions: OCI-Ly10, 72 h, time 3 day, read-out: GI
OCI-Ly10 [29] = assay: Growth inhibition of human OCILY10 cells at 3.3 uM incubated for 3 days (reference value: -2%); format: functional; conditions: OCI-Ly10, 72 h, time 3 day, read-out: GI
OCI-Ly10 [30] = assay: Growth inhibition of human OCILY10 cells at 10 uM incubated for 3 days (reference value: -2%); format: functional; conditions: OCI-Ly10, 72 h, time 3 day, read-out: GI
OCI-Ly10 [31] = assay: Growth inhibition of human OCILY10 cells at 1.7 uM incubated for 3 days (reference value: -2%); format: functional; conditions: OCI-Ly10, 72 h, time 3 day, read-out: GI
SUD4 [32] = assay: Growth inhibition of human SU-DHL-4 cells at 1.7 uM incubated for 3 days (reference value: 2%); format: functional; conditions: SU-DHL-4, 72 h, time 3 day, read-out: GI
SUD4 [33] = assay: Growth inhibition of human SU-DHL-4 cells at 3.3 uM incubated for 3 days (reference value: 2%); format: functional; conditions: SU-DHL-4, 72 h, time 3 day, read-out: GI
SUD4 [34] = assay: Growth inhibition of human SU-DHL-4 cells at 0.17 uM incubated for 3 days (reference value: 2%); format: functional; conditions: SU-DHL-4, 72 h, time 3 day, read-out: GI
SUD4 [35] = assay: Growth inhibition of human SU-DHL-4 cells at 0.33 uM incubated for 3 days (reference value: 2%); format: functional; conditions: SU-DHL-4, 72 h, time 3 day, read-out: GI
[36] = Oral bioavailability in mouse at 1 mg/kg; format: ADME, organism-based; conditions: in vivo
[37] = Oral bioavailability in rat at 1 mg/kg; format: ADME, organism-based; conditions: in vivo
SUD4 [38] = assay: Growth inhibition of human SU-DHL-4 cells at 10 uM incubated for 3 days (reference value: 2%); format: functional; conditions: SU-DHL-4, 72 h, time 3 day, read-out: GI

`Cc1ncc(-c2nc3c(OC4(C)CC4)nc(Nc4cnn(C5CCN(C)CC5)c4)nc3cc2F)cn1` showed a half-life [1] of 30 h, a half-life [2] of 4.2 h and a hepatocyte CLint [3] of 8.2 µL/min/1e6 cells. The fraction unbound [4] was 0.33, the microsomal CLint [5] was 16 µL/min/mg and the microsomal CLint [6] was 21 µL/min/mg. For the same compound, the Vdss [7] was 4.3 L/kg, the hepatocyte CLint [8] was 4.7 µL/min/1e6 cells and the half-life [9] was 1.4 h. For the same compound, the bioavailability [10] was 66%, the fraction unbound [11] was 0.21 and the hepatocyte CLint [12] was 11 µL/min/1e6 cells. It also gave a microsomal CLint [13] of 35 µL/min/mg, a clearance [14] of 4.08 L/h/kg and a Vdss [15] of 4.1 L/kg. It also gave a fraction unbound [16] of 0.21, a half-life [17] of 3 h and a hepatocyte CLint [18] of 5.6 µL/min/1e6 cells. For the same compound, the microsomal CLint [19] was less than 0.5 µL/min/mg, the Vd [20] was 8.6 L/kg and the hepatocyte CLint [21] was 4.5 µL/min/1e6 cells. The bioavailability [22] was 55%, the fraction unbound [23] was 0.16 and the inhibition [24] was 61%. For the same compound, the half-life [25] was 5.2 h, the microsomal CLint [26] was 13 µL/min/mg and the microsomal CLint [27] was 18 µL/min/mg.
For `CC[C@@H]1[C@H](F)C(=O)N[C@@H]1COc1nccc2cc(C(N)=O)c(OC)cc12` [ZIMLOVISERTIB], the inhibition of growth at 0.33 µM (OCI-Ly10 [28]) was 5%, the inhibition of growth at 3.3 µM (OCI-Ly10 [29]) was 20% and the inhibition of growth at 10 µM (OCI-Ly10 [30]) was 63%. The inhibition of growth at 1.7 µM (OCI-Ly10 [31]) was 10%.
`Cc1ncc(-c2nc3c(NC(C)C)nc(Nc4cnn(C5CC6(C5)CN(C)C6)c4)nc3cc2F)cn1` showed an inhibition of growth at 1.7 µM (SUD4 [32]) of 3%, an inhibition of growth at 3.3 µM (SUD4 [33]) of 4% and an inhibition of growth at 0.17 µM (SUD4 [34]) of 2%. The inhibition of growth at 0.33 µM (SUD4 [35]) was 3%, the bioavailability [36] was no more than 10% and the bioavailability [37] was no more than 10%. For the same compound, the inhibition of growth at 10 µM (SUD4 [38]) was 6%.
